Measurements as given in US10059689B2, “Substituted heteroaryl compounds and methods of use” (Sunshine Lake Pharma Co., Ltd., priority 2014, dated 2018).

Assay: Pharmacokinetics after intravenous and oral administration in rats
Format: in vivo
Conditions: for clearance (CL) / AUC(0-t) / half-life / Vd: iv dosing, 1 mg/kg; for F: oral bioavailability; for AUC(0-t) / half-life / Vd: rat, plasma; for Vd: read-out: Vss
Description: The LC/MS/MS system used in the analysis consists of an Agilent 1200 Series vacuum degasser, binary pump, well-plate autosampler, thermostatted column compartment, the Agilent G6430 Triple Quadrupole Mass Spectrometer with an electrosprayionization (ESI) source. Quantitative analysis was carried out using MRM mode. The parameters for MRM transitions are in the Table A.
An Agilent XDB-C18, 2.1×30 mm, 3.5 μM column was used for the analysis. 5 μL of the samples were injected. Analysis condition: The mobile phase was 0.1% formic acid in water (A) and 0.1% formic acid in methanol (B). The flow rate was 0.4 mL/min. And the gradient of Mobile phase was in the Table B.
Alternatively, an Agilent 6330 series LC/MS/MS spectrometer equipped with G1312A binary pumps, a G1367A autosampler and a G1314C UV detector were used in the analysis. An ESI source was used on the LC/MS/MS spectrometer. The analysis was done in positive ion mode as appropriate and the MRM transition for each analyte was optimized using standard solution. A Capcell MP-C18 100×4.6 mm I.D., […] column (Phenomenex, Torrance, Calif., USA) was used during the analysis. The mobile phase was 5 mM ammonia acetate, 0.1% MeOH in water (A): 5 mM ammonia acetate, 0.1% MeOH in acetonitrile (B) (70:30, v/v). The flow rate was 0.6 mL/min. Column was maintained at ambient temperature. 20 μL of the samples were injected.
The compounds disclosed herein are assessed in pharmacokinetic studies in mice, rats, dogs or monkeys. The compounds are administered as a water solution, 2% HPMC+1% TWEEN®80 in water solution, 5% DMSO+5% solutol in saline, 4% MC suspension or capsule. For the intravenous administration, the animals are generally given at 1 or 2 mg/kg dose. For the oral (p.o.) dosing, mice and rats are generally given 5 or 10 mg/kg dose, and dogs and monkeys are generally given 10 mg/kg dose. The blood samples (0.3 mL) are drawn at 0.25, 0.5, 1.0, 2.0, 3.0, 4.0, 6.0, 8.0, 12 and 24 h time points or 0.083, 0.25, 0.5, 1.0, 2.0, 4.0, 6.0, 8.0 and 24 h time points and centrifuged at 3,000 or 4000 rpm for 2 to 10 min. The plasma solutions are collected, and stored at −20° C. or −70° C. until analyzed by LC/MS/MS as described above.

clearance (CL) [mL/min/kg]	F [%]	AUC(0-t) [ng·h/mL]	half-life [min]	Vd [L/kg]	SMILES
3.83	136.8	4660	58.8	0.31	Cn1cc(Nc2ncc(Cl)c(NC3CCN(c4ccc(C#N)cn4)CC3)n2)cn1 [Ex. 1, 6-(4-((5-chloro-2-((1-methyl-1H-pyrazol-4-yl)amino)pyrimidin-4-yl)amino)piperidin-1-yl)nicotinonitrile]
7.17	78.76	2340	103	0.72	Cc1c2ccc(Nc3ncc(Cl)c(NC4CCN(c5ccc(C#N)cn5)CC4)n3)cc2nn1C [Ex. 4]
29.7	182.46	572	30.6	0.67	CN(c1nc(Nc2cnn(C)c2)ncc1Cl)C1CCN(c2ccc(C#N)cn2)CC1 [Ex. 5, 6-(4-((5-chloro-2-((1-methyl-1H-pyrazol-4-yl)amino)pyrimidin-4-yl) (methyl)amino)piperidin-1-yl)nicotinonitrile]
9.67	75.3	1740	43.2	0.63	Cc1nn(C)cc1Nc1ncc(Cl)c(NC2CCN(c3ccc(C#N)cn3)CC2)n1 [Ex. 10, 6-(4-((5-chloro-2-((1,3-dimethyl-1H-pyrazol-4-yl)amino)pyrimidin-4-yl)amino)piperidin-1-yl)nicotinonitrile]
17.7	61.8	931	27	0.62	Cc1nn(C)cc1Nc1ncc(Cl)c(NC2CCN(c3ccc(C#N)nn3)CC2)n1 [Ex. 11, 6-(4-((5-chloro-2-((1,3-dimethyl-1H-pyrazol-4-yl)amino)pyrimidin-4-yl)amino)piperidin-1-yl)pyridazine-3-carbonitrile]
11.3	39.2	1480	29.4	0.5	Cc1c2ccc(Nc3ncc(Cl)c(NC4CCN(c5ccc(C#N)nn5)CC4)n3)cc2nn1C [Ex. 12, 6-(4-((5-chloro-2-((2,3-dimethyl-2H-indazol-6-yl)amino)pyrimidin-4-yl)amino)piperidin-1-yl)pyridazine-3-carbonitrile]
